Measured values: PubChem BioAssay AID248 (DTP/NCI, 2004)
“And” between values parts separate entries of the source, which are not always exact repeats. Equal values may be shown once. Toxic doses and inconclusive results are not listed. No stated cut-off is given here; in the data, active means T/C of 150% or more; inactive means T/C below 125%.

Tested on: L1210 leukemia ip in BDF1 mice, survival T/C
Experiment: NCI In Vivo Anticancer Drug Screen. Data for tumor model L1210 Leukemia (intraperitoneal) in B6D2F1 (BDF1) mice
Settings: endpoint: mean survival time, higher = longer survival
Procedure, shortened: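 Transplantable tumor model; survival measured in treated vs vehicle control mice. Value = treated/control.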

[1] = dose: 100.0 mg/kg/injection, schedule: Q04DX002 (ip), vehicle: Klucel (hydroxypropylcellulose) (HPC)
[2] = dose: 200.0 mg/kg/injection, schedule: Q04DX002 (ip), vehicle: Klucel (hydroxypropylcellulose) (HPC)
[3] = dose: 100.0 mg/kg/injection, schedule: Q01DX009 (ip), vehicle: Klucel (hydroxypropylcellulose) (HPC)
[4] = dose: 200.0 mg/kg/injection, schedule: Q01DX009 (ip), vehicle: Klucel (hydroxypropylcellulose) (HPC)
[5] = dose: 100.0 mg/kg/injection, schedule: Q01DX001 (ip), vehicle: Klucel (hydroxypropylcellulose) (HPC)
[6] = dose: 200.0 mg/kg/injection, schedule: Q01DX001 (ip), vehicle: Klucel (hydroxypropylcellulose) (HPC)
[7] = dose: 400.0 mg/kg/injection, schedule: Q01DX001 (ip), vehicle: Klucel (hydroxypropylcellulose) (HPC)
[8] = dose: 25.0 mg/kg/injection, schedule: Q01DX009 (ip), vehicle: saline with Tween-80
[9] = dose: 50.0 mg/kg/injection, schedule: Q01DX009 (ip), vehicle: saline with Tween-80
[10] = dose: 100.0 mg/kg/injection, schedule: Q04DX003 (ip), vehicle: saline with Tween-80
[11] = dose: 200.0 mg/kg/injection, schedule: Q04DX003 (ip), vehicle: saline with Tween-80
[12] = dose: 100.0 mg/kg/injection, schedule: Q04DX003 (ip), vehicle: saline
[13] = dose: 200.0 mg/kg/injection, schedule: Q04DX003 (ip), vehicle: saline
[14] = dose: 400.0 mg/kg/injection, schedule: Q04DX003 (ip), vehicle: saline
[15] = dose: 100.0 mg/kg/injection, schedule: Q01DX009 (ip), vehicle: saline
[16] = dose: 100.0 mg/kg/injection, schedule: Q01DX009 (ip), vehicle: saline with Tween-80
[17] = dose: 100.0 mg/kg/injection, schedule: Q01DX001 (ip), vehicle: saline
[18] = dose: 200.0 mg/kg/injection, schedule: Q01DX001 (ip), vehicle: saline
[19] = dose: 400.0 mg/kg/injection, schedule: Q01DX001 (ip), vehicle: saline

Measured: T/C

O=S(=O)(OCCOS(=O)(=O)c1ccccc1)c1ccccc1
inactive: [1] 115 % of control | [2] 107 % of control | dose: 400.0 mg/kg/injection, schedule: Q04DX002 (ip), vehicle: Klucel (hydroxypropylcellulose) (HPC) 100 % of control

Cc1cccc(Cl)c1NC(=S)N1CCCC1
inactive: [3] 94 % of control | [4] 94 % of control | dose: 400.0 mg/kg/injection, schedule: Q01DX009 (ip), vehicle: Klucel (hydroxypropylcellulose) (HPC) 96 % of control

C1CCC2[N-]CC3CCCCC3[N-]CC3CCCCC3[N-]CC3CCCCC3[N-]CC2C1.[Cu+2].[O-][Cl+3]([O-])([O-])O (centres undefined)
inactive: dose: 12.5 mg/kg/injection, schedule: Q04DX002 (ip), vehicle: Klucel (hydroxypropylcellulose) (HPC) 111 % of control | dose: 25.0 mg/kg/injection, schedule: Q04DX002 (ip), vehicle: Klucel (hydroxypropylcellulose) (HPC) 108 % of control | dose: 50.0 mg/kg/injection, schedule: Q04DX002 (ip), vehicle: Klucel (hydroxypropylcellulose) (HPC) 108 % of control

N#Cc1[nH]cnc1/N=N/N(CCF)CCF
inactive: dose: 9.5 mg/kg/injection, schedule: Q01DX009 (ip), vehicle: saline with Tween-80 101 % of control | dose: 18.0 mg/kg/injection, schedule: Q01DX009 (ip), vehicle: saline with Tween-80 121 % of control | dose: 18.0 mg/kg/injection, schedule: Q04DX003 (ip), vehicle: saline with Tween-80 98 % of control | dose: 37.0 mg/kg/injection, schedule: Q04DX003 (ip), vehicle: saline with Tween-80 116 % of control

CCOC(=O)C(Cc1ccc2ccccc2n1)C(=O)OCC
inactive: [5] 100 % of control | [6] 106 % of control | [7] 100 % of control

CC(=O)c1ccc(OC(=O)Nc2ccc(Cl)cc2)cc1
inactive: [8] 106 % of control and 108 % of control | [9] 106 % of control and 112 % of control | dose: 100.0 mg/kg/injection, schedule: Q04DX002 (ip), vehicle: saline with Tween-80 100 % of control and 103 % of control | [10] 103 % of control | dose: 200.0 mg/kg/injection, schedule: Q04DX002 (ip), vehicle: saline with Tween-80 95 % of control and 92 % of control | [11] 108 % of control | dose: 400.0 mg/kg/injection, schedule: Q04DX002 (ip), vehicle: saline with Tween-80 97 % of control and 100 % of control

CCN(CC)CCCC(C)Nc1c2ccc(Cl)cc2nc2ccc(OC)cc12 (centres undefined)
inactive: dose: 7.5 mg/kg/injection, schedule: Q01DX Z (ip), vehicle: saline 93 % of control | dose: 15.0 mg/kg/injection, schedule: Q01DX Z (ip), vehicle: saline 95 % of control | dose: 25.0 mg/kg/injection, schedule: Q01DX015 (ip), vehicle: carboxymethylcellulose (CMC) 102 % of control | dose: 30.0 mg/kg/injection, schedule: Q01DX Z (ip), vehicle: saline 96 % of control | dose: 50.0 mg/kg/injection, schedule: Q01DX015 (ip), vehicle: carboxymethylcellulose (CMC) 102 % of control | dose: 50.0 mg/kg/injection, schedule: Q01DX Z (ip), vehicle: water 104 % of control | dose: 100.0 mg/kg/injection, schedule: Q01DX001 (ip), vehicle: carboxymethylcellulose (CMC) 96 % of control | dose: 100.0 mg/kg/injection, schedule: Q01DX015 (ip), vehicle: carboxymethylcellulose (CMC) 102 % of control | dose: 200.0 mg/kg/injection, schedule: Q01DX001 (ip), vehicle: carboxymethylcellulose (CMC) 116 % of control

CCOc1nc(=O)n(C2CCOC2=O)cc1F (centres undefined)
inactive: dose: 75.0 mg/kg/injection, schedule: Q01DX009 (ip), vehicle: other 103 % of control | [12] 92 % of control | dose: 150.0 mg/kg/injection, schedule: Q01DX009 (ip), vehicle: other 103 % of control | [13] 106 % of control | dose: 300.0 mg/kg/injection, schedule: Q01DX009 (ip), vehicle: other 100 % of control | [14] 95 % of control

O=C(O)C1=CC(O)C(O)C(O)C1 (centres undefined)
inactive: dose: 100.0 mg/kg/injection, schedule: Q01DX009 (ip), vehicle: saline sonified 103 % of control | [15] 104 % of control | [12] 92 % of control | dose: 200.0 mg/kg/injection, schedule: Q01DX009 (ip), vehicle: saline sonified 86 % of control | dose: 200.0 mg/kg/injection, schedule: Q01DX009 (ip), vehicle: saline 107 % of control | [13] 100 % of control | dose: 400.0 mg/kg/injection, schedule: Q01DX009 (ip), vehicle: saline 106 % of control | [14] 97 % of control

Nc1ccc(/C=C\C(=O)NCc2cccnc2)cc1
inactive: [8] 109 % of control | [9] 102 % of control | [16] 93 % of control and 90 % of control

COc1ccc(C(=O)c2c[nH]c3c(OC)ccc(O)c23)cc1
inactive: dose: 6.25 mg/kg/injection, schedule: Q04DX002 (ip), vehicle: saline with Tween-80 95 % of control | dose: 12.5 mg/kg/injection, schedule: Q04DX002 (ip), vehicle: saline with Tween-80 95 % of control | dose: 25.0 mg/kg/injection, schedule: Q04DX002 (ip), vehicle: saline with Tween-80 91 % of control

CCCCOCCCNC(F)(F)C(=O)Nc1ccc(S(=O)(=O)c2ccc(NC(=O)C(F)(F)NCCCOCCCC)cc2)cc1
inactive: [17] 113 % of control | [18] 97 % of control | [19] 94 % of control

O=C(c1ccccc1)C(Cl)C(O)(C(F)(F)F)C(F)(F)F (centres undefined)
inactive: [9] 96 % of control | [16] 92 % of control | dose: 200.0 mg/kg/injection, schedule: Q01DX009 (ip), vehicle: saline with Tween-80 108 % of control

CCN(C(=O)c1ccc2c3c(cccc13)C=C2)c1ccccc1
inactive: [17] 104 % of control | [18] 98 % of control | [19] 98 % of control

CC1(C(Cl)Cl)C=CC=CC1=O (centres undefined)
inactive: [5] 102 % of control | [6] 106 % of control | [7] 104 % of control

O=C(N/N=C/c1cccc([N+](=O)[O-])c1)c1ccc(O)cc1
inactive: [1] 102 % of control | [2] 105 % of control

CC1CCC(C(C)C)C(OC(=O)c2c([N+](=O)[O-])ccc([N+](=O)[O-])c2Br)C1 (centres undefined)
inactive: [3] 105 % of control | [4] 100 % of control

CNCC(C)(C)c1ccccc1
inactive: dose: 6.25 mg/kg/injection, schedule: Q01DX009 (ip), vehicle: saline 101 % of control | dose: 12.5 mg/kg/injection, schedule: Q01DX009 (ip), vehicle: saline 101 % of control | dose: 25.0 mg/kg/injection, schedule: Q01DX009 (ip), vehicle: saline 102 % of control | dose: 25.0 mg/kg/injection, schedule: Q04DX003 (ip), vehicle: saline 104 % of control | dose: 50.0 mg/kg/injection, schedule: Q01DX009 (ip), vehicle: saline 107 % of control | dose: 50.0 mg/kg/injection, schedule: Q04DX003 (ip), vehicle: saline 104 % of control | [15] 104 % of control | [12] 106 % of control

CCP(=S)(CC)CCCCCP(=S)(CC)CC
inactive: [10] 92 % of control | [11] 95 % of control | dose: 400.0 mg/kg/injection, schedule: Q04DX003 (ip), vehicle: saline with Tween-80 87 % of control
